Experimental data from patent publication US7741303B2, “Stimulation of cellular regeneration and differentiation in the inner ear” (Sound Pharmaceuticals Incorporated, priority 1998, dated 2010).

How the values were obtained:
guinea pig JH4 cells = test: Reversal of serum-deprivation growth arrest, BrdU labeling; type: cell-based
Source text: Cells were counted under fluorescence microscopy. The combination of lipids and p27^kip1. AS reversed growth arrest to 40% of that seen with 10% FBS stimulation (p<0.0001). (+) FBS; (−) no FBS; (AS) antisense oligonucleotide; (lipid) lipofection.
Cultures of cell lines were established that are responsive to p27^Kip1 antisense oligonucleotides (ON) during the period of serum withdrawal and growth arrest. These cultures include a guinea pig fibroblast line (JH4). Lipofection of the 16 mer antisense ON (having the nucleic acid sequence set forth in SEQ ID NO:20) reversed growth arrest in the JH4 cell line to over 40% of normal.

[1] = tested on: utricular, saccular and cristae sensory epithelium; test: BrdU-labeled cells in the vestibular organs of p27^Kip1 mice after amikacin/BrdU; type: in vivo; conditions: for number of BrdU labeled cells, utricle: BrdU/Amikacin (500 mg/kg/d s.c., P7-P12)
Procedure: To determine whether p27^Kip1 plays a similar role in the peripheral vestibular system, the proliferative capacity of the utricle, saccule and cristae of p27^Kip1 +/−, and +/+ mice was examined. Mice (P7-P12) received systemic injections of amikacin sulfate (500 mg/kg/d/s.c) for six consecutive days that were combined with injections of the replication marker, bromodeoxyuridine (BrdU; 30 mg/kg/d/s.c) between P10-P12. Mice were also injected with BrdU alone in a similar fashion. Mice were then sacrificed 14 d later and the vestibular sensory organs were fixed, dissected and processed for BrdU immunocytochemistry. BrdU positive nuclei were counted from whole mounts using light microscopy and Nomarski optics. Selected organs were further processed for cross section analysis.
BrdU positive HCs were also observed in both otolithic organs. Most of these regenerated HC appeared as type I HCs in that they were contacted by a calyx. […] In p27^Kip1 +/+ mice, no BrdU positive nuclei in either the saccule or utricle were observed after amikacin/BrdU or BrdU alone. […] Counts were performed from whole utricular, saccular and cristae sensory epithelium (±s.d.). In the BrdU group, statistical significance was determined by comparing proliferation levels in the same sensory organ across +/+, +/− and −/−. In the BrdU/Amikacin group, statistical significance was determined by comparing proliferation levels in the same sensory organ of the same genotype. Statistical significance was determined using ANOVA.

organ of Corti = test: BrdU-labeled cells in the organ of Corti of p27^Kip1 +/+, +/−, −/− mice after amikacin lesioning; type: in vivo; conditions: for number of BrdU labeled cells in the organ of Corti: 1000 μm length of sensory epithelium, apical half of cochlea, ±s.d.
Procedure: To determine whether auditory hair cells were being produced after the onset of hearing at postnatal day 10, two-week old p27^Kip1 −/−, +/−, +/+ mice (P10-12) received three daily systemic injections of bromodeoxyuridine (BrdU; 30 mg/kg/s.c), a nucleotide analog which is incorporated into proliferating cells during S phase. Mice were then permitted to recover for two-days or two-weeks without further injections. BrdU positive HCs were identified with immunocytochemistry using light and fluorescence microscopy. Cochlea were also labeled with antibodies against myosin-VI and myosin-VIIa. In two-week old p27^Kip1 −/− cochlea that were recovered for 2d after the last injection, no BrdU/myosin-VIIa positive cells were observed among the BrdU positive cells. However, in four-week old p27^Kip1 −/− cochlea that were recovered for 14 days after the last injection, BrdU/myosin-VIIa positive HCs were observed. Most of those double labeled were IHCs. This qualitative finding is similar to our quantitative assessments of IHCs and OHCs numbers. p27^Kip1 +/−, +/+ mice were completely devoid of BrdU positive cells at 2d and 14d of recovery. […] Counts were performed on a 1000 μm length of sensory epithelium taken in the apical half of the cochlea (±s.d.). Proliferation in the BrdU groups were compared across +/+, +/−and −/−. Proliferation in the BrdU/Amikacin group was compared with that in the BrdU only group of the same genotype. Statistical significance was determined using ANOVA.
To ascertain whether auditory HCs could be regenerated, HCs were lesioned using systemic injections of amikacin sulfate (P7-P12) and then injected with BrdU (P10-12). Mice were sacrificed either 2 d or 14 d after the last injection. The effects of an amikacin lesioning were at least two-fold. First, in both p27^Kip1 −/− and +/− mice, the number of BrdU positive cells increased following amikacin/BrdU vs BrdU alone treatment. […] Evidence of HC regeneration was confirmed by sectioning the labeled cochlea. Second, a greater number of BrdU positive HCs were observed following amikacin lesioning in p27^Kip1 −/− cochlea. The majority of the BrdU positive HCs appeared in the regions of the cochlea where the amikacin sulfate had injured or killed HCs (in the basal half of the cochlea).

auditory function = test: Auditory brainstem response (ABR) threshold after amikacin sulfate treatment; type: in vivo, mice; conditions: p27 heterozygotes, two and four weeks after amikacin sulfate treatment; p<0.001
Procedure: Experimental animals were treated the same as the mice described in the experiments reported in Table 2 herein, except that, in the present example, there was an additional recovery time point at four weeks after amikacin treatment. Auditory function was measured using the auditory brainstem response (ABR) using subcutaneous recording electrodes placed on three head points in Isofluorane anesthetized mice. The sound intensity threshold was determined by presenting single frequencies as different sound intensities (intensity measured in decibels). The higher the tone intensity that is required to elicit the ABR, the higher the auditory threshold, i.e., the worse the auditory function.

[2] = tested on: supporting cells of wild type organ of Corti explants; test: p27^Kip1 antisense oligonucleotide treatment of neomycin-lesioned organ of Corti explants, BrdU immunocytochemistry; type: cell-based, mouse
Procedure: (§1) To test whether inhibition of the p27^Kip1 gene product in p27^Kip1 +/+ cochlea would allow non-mitotic supporting cells to proliferate, wild type organ of Corti explants (P7-P10, at age of hearing onset) were treated with p27^Kip1 antisense oligonucleotides (ONs). Explant cultures were established by dissecting the organ of Corti from the cochlea, removing the tectorial membrane and adhering the organ of Corti to a glass slide coated with Cell-tak and maintained at 37° C. in a 5% CO2 environment. The explant was then exposed to an ototoxic antibiotic (1 mM neomycin sulfate) for 48 h which killed >95% of the HCs (Kil, J., et al., ARO abs. 21:672 (1998)). The neomycin containing media was then removed and p27^Kip1 antisense oligonucleotides (Ons) (40 nM) were administered using a cationic lipid (lipofection) for a period of 24-48 hr. Some of these living cultures were examined under fluorescence to detect the presence of FITC conjugated antisense ON.
FITC-positive supporting cells were detected in 18-24 h and increased in number and fluorescent intensity between 24-48 h. Cultures were aldehyde fixed and processed for BrdU immunocytochemistry. […] BrdU-positive doublets appeared in antisense ON treated cultures that were recovered for an additional 24 hr without antisense ONs. […] Lipofection-only treated cultures contained very low levels of BrdU-labeled supporting cells.

[3] = tested on: hair cells of organ of Corti explant; test: Hair cell lesioning of organ of Corti cultures with neomycin; type: cell-based, mouse; conditions: 1 mM neomycin, organotypic cultures, 48 h, calbindin immunoreactivity and cross-section analysis
Procedure: as §1, with “The neomycin containing media was then removed and p27^Kip1 antisense oligonucleotides (Ons) (40 nM) were administered using a cationic lipid (lipofection) for a period of 24-48 hr.” left out, “ON. […]” for “ON.”
An aminoglycoside antibiotic lesion of the hair-cells is then be combined with subsequent lipofection. […] Unlike cultures derived from neonatal mice, the two-week old mouse which has developed auditory function is more easily affected by this concentration of neomycin resulting in a greater than 95% loss of hair-cells as determined by calbindin immunoreactivities and plastic cross-section analysis. […] This may necessitate the use of a commercially available GFP antibody (Clonetech) to enhance the fluorescence of lipofected cells.

[4] = tested on: hair cells of organ of Corti explant; conditions: 1 mM neomycin sulfate for 48 h; P7-P10 wild type explants; cited from earlier work
[5] = p27^Kip1 +/+ mice, BrdU/Amikacin, 14 d recovery, whole sensory epithelium, ±s.d.
[6] = p27^Kip1 +/− mice, BrdU/Amikacin, 14 d recovery, whole sensory epithelium, ±s.d.
[7] = p27^Kip1 −/− mice, BrdU/Amikacin, 14 d recovery, whole sensory epithelium, ±s.d.

With “16 mer antisense ON: 16 mer p27^Kip1 antisense ON having the nucleic acid sequence set forth in SEQ ID NO:20 (antisense TGGCTCTCCTGCGCC; listed as DNA, chemistry not given here)” the “reversal of growth arrest” value (guinea pig JH4 cells; lipofection, serum withdrawal) was “over 40 % of normal” and the “reversal of growth arrest (BrdU-labeled cells)” value (guinea pig JH4 cells; serum deprivation 24 hours, BrdU pulse last 4 hours, combination of lipids and AS, p<0.0001) was 40 % of that seen with 10% FBS stimulation.

In the case of NCC[C@H](O)C(=O)N[C@@H]1C[C@H](N)[C@@H](O[C@H]2O[C@H](CN)[C@@H](O)[C@H](O)[C@H]2O)[C@H](O)[C@H]1O[C@H]1O[C@H](CO)[C@@H](O)[C@H](N)[C@H]1O.O=S(=O)(O)O.O=S(=O)(O)O [Amikacin, amikacin sulfate], the “number of BrdU labeled cells, utricle” value ([1]; p27^Kip1 +/+ mice, 14 d recovery, whole sensory epithelium, ±s.d.) was 0.0 ± 0.0, the “number of BrdU labeled cells, cristae” value [1, 5] was 0.0 ± 0.0 and the “number of BrdU labeled cells, saccule” value [1, 5] was 0.0 ± 0.0. For the same compound, the “proliferation in the saccule or utricle after combined amikacin/BrdU treatment” value ([1]; p27^Kip1 +/− mice) was “a very low level of proliferation was induced”, the “number of BrdU labeled cells, utricle” value ([1]; p27^Kip1 +/− mice, 14 d recovery, whole sensory epithelium, ±s.d.) was 0.4 ± 0.7 and the “number of BrdU labeled cells, cristae” value [1, 6] was 0.0 ± 0.0. For the same compound, the “number of BrdU labeled cells, saccule” value [1, 6] was 1.6 ± 1.9, the “number of BrdU labeled cells, utricle” value ([1]; p27^Kip1 −/− mice, 14 d recovery, whole sensory epithelium, ±s.d.) was 45.5 ± 19.2 and the “number of BrdU labeled cells, cristae (sub-head printed as utricle)” value [1, 7] was 0.0 ± 0.0. For the same compound, the “number of BrdU labeled cells, saccule” value [1, 7] was 51.8 ± 15.3, the “increase in the number of BrdU positive cells after combined amikacin/BrdU treatment” value ([1]; p27^Kip1 −/− mice, saccule and utricle (both organs), versus BrdU only) was 40 fold and the “number of BrdU positive cells following amikacin/BrdU vs BrdU alone treatment” value (organ of Corti; cochlea of both p27^Kip1 −/− and +/− mice) was “increased”. For the same compound, the “number of BrdU labeled cells in the organ of Corti” value (“number … of Corti” below) (organ of Corti; p27^Kip1 +/+ mice, BrdU/Amikacin + 2d recovery) was 0.0 ± 0.0, the “number … of Corti” value (organ of Corti; p27^Kip1 +/+ mice, BrdU/Amikacin + 14d recovery) was 0.0 ± 0.0 and the “number … of Corti” value (organ of Corti; p27^Kip1 +/− mice, BrdU/Amikacin + 2d recovery) was 4.7 ± 7.6. The “number … of Corti” value (organ of Corti; p27^Kip1 +/− mice, BrdU/Amikacin + 14d recovery) was 10.5 ± 12.0, the “number … of Corti” value (organ of Corti; p27^Kip1 −/− mice, BrdU/Amikacin + 2d recovery) was 96.3 ± 9.5 and the “number … of Corti” value (organ of Corti; p27^Kip1 −/− mice, BrdU/Amikacin + 14d recovery) was 137.4 ± 17.0. The “p27 heterozygotes showing evidence of inner cell proliferative regeneration (BrdU-labeling and morphologic criteria)” value (organ of Corti; p27 heterozygotes of Table 2, amikacin treated) was “five out of ten”, the “BrdU positive cells in wt cochlea” value (organ of Corti; wt cochlea following amikacin/BrdU) was “No BrdU positive cells were observed” and the “auditory improvement (ABR threshold)” value (auditory function) was “five out of eight”.

For “antisense ON: p27^Kip1 antisense oligonucleotides administered using a cationic lipid (lipofection) to organ of Corti explants (antisense TGGCTCTCCTGCGCC; FITC conjugated, delivered with cationic lipid, further chemistry not given here)”, the BrdU-positive supporting cells ([2]; 40 nM antisense ON by lipofection, after 24 h of treatment, after 1 mM neomycin 48 h) was “appeared in most cochlear cultures”, the “time at which FITC-positive supporting cells were detected” value ([2]; FITC conjugated antisense ON, lipofection, living cultures under fluorescence) was 18 to 24 h and the BrdU-positive doublets ([2]; antisense ON treated cultures recovered for an additional 24 hr without antisense ONs) was “appeared”.

In the case of neomycin sulfate, the “loss of hair cells” value [3] is given as “greater than 95%”, the “loss of hair cells” value ([3]; listed as neomycin) is given as 95% and the HCs killed [4] is given as over 95%.
